Assay results from the kinase profiling compilation of Christmann-Franck et al. (2016).
“And” between values parts separate entries of the source, which are not always exact repeats. Equal entries are not always repeated.

Key:
Test in all cases: KINOMEscan competition binding
Conditions in all cases: compound 10.0 µM
EPHA3 (human) = EPHA3 (human) (UniProt P29320)
NEK7 (human) = NEK7 (human) (UniProt Q8TDX7)
RIPK1 (human) = RIPK1 (human) (UniProt Q13546)
DAPK3 (human) = DAPK3 (human) (UniProt O43293)
RIPK4 (human) = RIPK4 (human) (UniProt P57078)
RPS6KA6 KD1 (human) = RPS6KA6 KD1 (human) (UniProt Q9UK32)
NEK1 (human) = NEK1 (human) (UniProt Q96PY6)
CRK2 (P.falciparum) = CRK2 (P.falciparum) (UniProt P61075)
Sequence of CRK2 (P.falciparum) (P61075 whole entry, looked up): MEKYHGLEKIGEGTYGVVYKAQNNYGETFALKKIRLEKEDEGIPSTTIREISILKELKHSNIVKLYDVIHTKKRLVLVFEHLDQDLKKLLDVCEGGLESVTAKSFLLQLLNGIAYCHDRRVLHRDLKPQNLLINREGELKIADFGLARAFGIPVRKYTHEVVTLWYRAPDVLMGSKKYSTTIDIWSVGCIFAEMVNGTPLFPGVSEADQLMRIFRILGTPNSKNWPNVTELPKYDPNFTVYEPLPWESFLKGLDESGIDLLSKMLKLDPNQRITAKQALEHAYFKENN

PIK3CB (human) = PIK3CB (human) (UniProt P42338)
CDKL5 (human) = CDKL5 (human) (UniProt O76039)
RPS6KA2 KD1 (human) = RPS6KA2 KD1 (human) (UniProt Q15349)
MELK (human) = MELK (human) (UniProt Q14680)
Sequence of MELK (human) (Q14680 whole entry, looked up): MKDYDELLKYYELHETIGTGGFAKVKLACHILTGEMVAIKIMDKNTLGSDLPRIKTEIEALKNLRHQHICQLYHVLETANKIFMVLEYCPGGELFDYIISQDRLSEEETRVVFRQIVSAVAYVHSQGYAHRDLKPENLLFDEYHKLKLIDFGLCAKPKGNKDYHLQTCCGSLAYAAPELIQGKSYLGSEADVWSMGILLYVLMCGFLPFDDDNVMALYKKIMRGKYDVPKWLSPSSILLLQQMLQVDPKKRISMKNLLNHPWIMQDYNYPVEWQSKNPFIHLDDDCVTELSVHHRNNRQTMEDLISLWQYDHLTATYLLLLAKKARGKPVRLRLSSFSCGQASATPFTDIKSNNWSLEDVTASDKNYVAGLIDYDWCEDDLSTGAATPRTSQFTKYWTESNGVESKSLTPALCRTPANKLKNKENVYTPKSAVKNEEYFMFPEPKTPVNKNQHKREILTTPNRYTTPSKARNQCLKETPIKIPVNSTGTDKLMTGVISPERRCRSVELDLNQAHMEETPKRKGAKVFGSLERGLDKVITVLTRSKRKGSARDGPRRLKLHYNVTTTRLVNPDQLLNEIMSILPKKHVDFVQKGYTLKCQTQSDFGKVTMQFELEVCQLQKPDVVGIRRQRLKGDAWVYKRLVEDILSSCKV

PRKG2 (human) = PRKG2 (human) (UniProt Q13237)
FGFR2 (human) = FGFR2 (human) (UniProt P21802)
Sequence of FGFR2 (human) (P21802 whole entry, looked up): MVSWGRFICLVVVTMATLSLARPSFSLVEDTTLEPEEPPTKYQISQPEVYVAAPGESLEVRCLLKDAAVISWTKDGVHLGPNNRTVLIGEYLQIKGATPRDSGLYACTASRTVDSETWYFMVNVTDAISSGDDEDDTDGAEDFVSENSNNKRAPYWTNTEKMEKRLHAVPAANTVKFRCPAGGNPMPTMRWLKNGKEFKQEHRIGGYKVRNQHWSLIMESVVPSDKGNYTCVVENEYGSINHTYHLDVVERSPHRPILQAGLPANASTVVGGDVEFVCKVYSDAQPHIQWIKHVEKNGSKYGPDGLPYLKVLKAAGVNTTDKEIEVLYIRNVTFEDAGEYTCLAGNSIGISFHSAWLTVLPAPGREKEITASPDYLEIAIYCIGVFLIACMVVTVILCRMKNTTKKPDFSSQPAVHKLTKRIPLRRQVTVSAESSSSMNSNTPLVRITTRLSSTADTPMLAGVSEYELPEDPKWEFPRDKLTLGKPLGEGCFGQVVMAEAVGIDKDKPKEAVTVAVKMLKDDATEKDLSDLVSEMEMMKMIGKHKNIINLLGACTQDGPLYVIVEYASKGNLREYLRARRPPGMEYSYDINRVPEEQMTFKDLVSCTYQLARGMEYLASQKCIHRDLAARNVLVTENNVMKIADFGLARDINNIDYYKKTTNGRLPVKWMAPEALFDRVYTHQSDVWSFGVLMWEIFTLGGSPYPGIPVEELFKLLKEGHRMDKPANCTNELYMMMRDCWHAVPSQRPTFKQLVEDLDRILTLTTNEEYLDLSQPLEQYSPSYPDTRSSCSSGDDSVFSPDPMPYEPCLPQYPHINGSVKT

PIP4K2C (human) = PIP4K2C (human) (UniProt Q8TBX8)
FLT3 (human) = FLT3 (human) (UniProt P36888)
[1] = target: TYK2 JH1 catalytic (human) (UniProt P29597)
MYLK2 (human) = MYLK2 (human) (UniProt Q9H1R3)
Sequence of MYLK2 (human) (Q9H1R3 whole entry, looked up): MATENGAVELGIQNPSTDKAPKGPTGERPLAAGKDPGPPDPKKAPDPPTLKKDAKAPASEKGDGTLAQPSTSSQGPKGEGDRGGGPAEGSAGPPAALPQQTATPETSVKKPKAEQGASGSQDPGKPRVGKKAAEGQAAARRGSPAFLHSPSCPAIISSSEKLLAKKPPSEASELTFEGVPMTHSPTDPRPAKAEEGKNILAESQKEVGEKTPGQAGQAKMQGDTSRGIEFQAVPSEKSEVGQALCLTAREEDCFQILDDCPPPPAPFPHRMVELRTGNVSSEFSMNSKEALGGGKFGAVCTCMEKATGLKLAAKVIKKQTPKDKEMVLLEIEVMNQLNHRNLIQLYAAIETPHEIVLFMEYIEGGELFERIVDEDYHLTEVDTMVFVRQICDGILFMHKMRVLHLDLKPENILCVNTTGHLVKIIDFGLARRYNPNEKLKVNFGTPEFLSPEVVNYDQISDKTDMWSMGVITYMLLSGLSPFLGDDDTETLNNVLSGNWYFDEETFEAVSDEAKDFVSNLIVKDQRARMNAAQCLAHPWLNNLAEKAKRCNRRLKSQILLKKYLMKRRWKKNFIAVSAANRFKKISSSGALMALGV

VRK2 (human) = VRK2 (human) (UniProt Q86Y07)
MAPK10 (human) = MAPK10 (human) (UniProt P53779)
[2] = tested on: EGFR (human), P00533 [747-751 del / S ins]
[3] = tested on: ABL1 (human), P00519 [Y253F]
GSK3A (human) = GSK3A (human) (UniProt P49840)
AKT1 (human) = AKT1 (human) (UniProt P31749)
STK25 (human) = STK25 (human) (UniProt O00506)
PKN3 (M.tuberculosis) = PKN3 (M.tuberculosis) (UniProt Q6P5Z2)
MATK (human) = MATK (human) (UniProt P42679)
Sequence of MATK (human) (P42679 whole entry, looked up): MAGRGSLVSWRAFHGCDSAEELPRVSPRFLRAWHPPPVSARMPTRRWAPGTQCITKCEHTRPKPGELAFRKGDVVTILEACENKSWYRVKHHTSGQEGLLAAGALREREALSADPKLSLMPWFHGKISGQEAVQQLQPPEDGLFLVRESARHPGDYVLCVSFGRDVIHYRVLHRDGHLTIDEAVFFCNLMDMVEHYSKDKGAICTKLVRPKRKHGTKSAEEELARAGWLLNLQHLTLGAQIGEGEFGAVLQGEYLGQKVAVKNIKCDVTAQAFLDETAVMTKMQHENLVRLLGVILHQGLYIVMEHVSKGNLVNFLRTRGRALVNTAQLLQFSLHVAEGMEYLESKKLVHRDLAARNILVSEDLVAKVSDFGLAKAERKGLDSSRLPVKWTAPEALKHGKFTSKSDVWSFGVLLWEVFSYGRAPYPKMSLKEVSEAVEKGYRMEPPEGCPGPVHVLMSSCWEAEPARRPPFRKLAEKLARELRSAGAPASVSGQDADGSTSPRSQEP

MARK1 (human) = MARK1 (human) (UniProt Q9P0L2)
SIK1 (human) = SIK1 (human) (UniProt P57059)
Sequence of SIK1 (human) (P57059 whole entry, looked up): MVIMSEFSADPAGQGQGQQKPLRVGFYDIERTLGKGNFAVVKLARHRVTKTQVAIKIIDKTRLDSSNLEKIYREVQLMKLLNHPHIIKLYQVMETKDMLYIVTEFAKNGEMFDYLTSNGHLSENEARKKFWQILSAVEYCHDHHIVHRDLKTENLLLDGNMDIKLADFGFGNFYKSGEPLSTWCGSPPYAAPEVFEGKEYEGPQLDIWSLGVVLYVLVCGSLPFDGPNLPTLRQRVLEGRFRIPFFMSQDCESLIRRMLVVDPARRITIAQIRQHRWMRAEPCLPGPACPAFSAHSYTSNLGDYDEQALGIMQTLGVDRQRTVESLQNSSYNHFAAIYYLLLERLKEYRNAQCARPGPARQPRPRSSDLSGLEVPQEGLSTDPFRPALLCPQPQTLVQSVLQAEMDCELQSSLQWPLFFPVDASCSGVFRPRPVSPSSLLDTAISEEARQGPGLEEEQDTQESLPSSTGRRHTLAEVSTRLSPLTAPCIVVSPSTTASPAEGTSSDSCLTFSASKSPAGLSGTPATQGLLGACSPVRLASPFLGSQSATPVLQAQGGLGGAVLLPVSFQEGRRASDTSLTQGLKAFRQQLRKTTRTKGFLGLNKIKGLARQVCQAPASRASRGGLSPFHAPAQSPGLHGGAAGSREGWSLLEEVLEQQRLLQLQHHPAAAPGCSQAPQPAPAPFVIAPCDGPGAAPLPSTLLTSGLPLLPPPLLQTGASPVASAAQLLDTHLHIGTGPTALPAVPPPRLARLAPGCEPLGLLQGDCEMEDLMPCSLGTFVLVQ

PTK6 (human) = PTK6 (human) (UniProt Q13882)
MAP3K10 (human) = MAP3K10 (human) (UniProt Q02779)
RPS6KA2 KD2 (human) = RPS6KA2 KD2 (human) (UniProt Q15349)
SRPK2 (human) = SRPK2 (human) (UniProt P78362)
STK32C (human) = STK32C (human) (UniProt Q86UX6)
MAPKAPK2 (human) = MAPKAPK2 (human) (UniProt P49137)
RIOK1 (human) = RIOK1 (human) (UniProt Q9BRS2)
STK4 (human) = STK4 (human) (UniProt Q13043)
PRKX (human) = PRKX (human) (UniProt P51817)
Sequence of PRKX (human) (P51817 whole entry, looked up): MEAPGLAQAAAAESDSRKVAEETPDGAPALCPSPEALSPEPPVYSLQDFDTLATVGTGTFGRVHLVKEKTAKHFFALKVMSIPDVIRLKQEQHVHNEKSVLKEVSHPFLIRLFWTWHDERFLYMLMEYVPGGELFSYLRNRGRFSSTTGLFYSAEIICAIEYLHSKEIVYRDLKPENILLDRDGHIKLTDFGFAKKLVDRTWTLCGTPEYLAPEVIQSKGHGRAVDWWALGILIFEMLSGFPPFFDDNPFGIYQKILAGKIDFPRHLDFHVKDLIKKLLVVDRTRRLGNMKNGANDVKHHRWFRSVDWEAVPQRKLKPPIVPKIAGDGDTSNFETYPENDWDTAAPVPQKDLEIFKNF

GSK3B (human) = GSK3B (human) (UniProt P49841)
CSF1R (human) = CSF1R (human) (UniProt P07333)

Sequence of EPHA3 (human) (P29320 whole entry, looked up): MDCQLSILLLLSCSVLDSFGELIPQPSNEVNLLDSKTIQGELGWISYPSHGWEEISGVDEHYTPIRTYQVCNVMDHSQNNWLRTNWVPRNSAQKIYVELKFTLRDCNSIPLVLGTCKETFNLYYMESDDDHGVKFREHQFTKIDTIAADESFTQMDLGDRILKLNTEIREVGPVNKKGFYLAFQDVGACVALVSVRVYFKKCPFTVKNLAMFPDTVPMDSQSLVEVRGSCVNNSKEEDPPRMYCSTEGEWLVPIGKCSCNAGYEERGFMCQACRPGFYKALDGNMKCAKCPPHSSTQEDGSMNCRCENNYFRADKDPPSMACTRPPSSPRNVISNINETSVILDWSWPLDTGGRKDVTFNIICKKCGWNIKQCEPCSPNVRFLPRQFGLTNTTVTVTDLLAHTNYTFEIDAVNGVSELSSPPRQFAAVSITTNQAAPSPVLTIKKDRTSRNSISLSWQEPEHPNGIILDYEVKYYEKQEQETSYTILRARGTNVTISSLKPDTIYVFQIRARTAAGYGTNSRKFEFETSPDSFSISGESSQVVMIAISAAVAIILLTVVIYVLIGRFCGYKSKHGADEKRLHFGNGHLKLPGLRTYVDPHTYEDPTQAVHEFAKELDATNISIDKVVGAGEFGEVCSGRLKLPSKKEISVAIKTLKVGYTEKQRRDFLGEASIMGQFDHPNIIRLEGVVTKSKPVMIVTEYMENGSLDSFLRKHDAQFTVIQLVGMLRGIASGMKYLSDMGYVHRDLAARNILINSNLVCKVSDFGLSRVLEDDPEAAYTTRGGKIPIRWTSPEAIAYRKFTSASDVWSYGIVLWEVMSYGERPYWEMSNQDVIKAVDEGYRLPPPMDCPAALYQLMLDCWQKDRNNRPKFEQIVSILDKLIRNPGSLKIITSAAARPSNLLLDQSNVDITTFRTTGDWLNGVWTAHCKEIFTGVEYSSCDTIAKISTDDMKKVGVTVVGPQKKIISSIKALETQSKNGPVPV

Compound | kinase still bound, per cent of control (NEK7 (human)) [%] | kinase still bound, per cent of control (RIPK1 (human)) [%] | kinase still bound, per cent of control (DAPK3 (human)) [%] | kinase still bound, per cent of control (RIPK4 (human)) [%] | kinase still bound, per cent of control (NEK1 (human)) [%] | kinase still bound, per cent of control (CRK2 (P.falciparum)) [%] | kinase still bound, per cent of control (PIK3CB (human)) [%] | kinase still bound, per cent of control (CDKL5 (human)) [%] | kinase still bound, per cent of control (RPS6KA2 KD1 (human)) [%] | kinase still bound, per cent of control (MELK (human)) [%] | kinase still bound, per cent of control (PRKG2 (human)) [%] | kinase still bound, per cent of control (FGFR2 (human)) [%] | kinase still bound, per cent of control (PIP4K2C (human)) [%] | kinase still bound, per cent of control (FLT3 (human)) | kinase still bound, per cent of control [1] [%] | kinase still bound, per cent of control (MYLK2 (human)) [%] | kinase still bound, per cent of control (VRK2 (human)) [%] | kinase still bound, per cent of control (MAPK10 (human)) [%] | kinase still bound, per cent of control (GSK3A (human)) [%] | kinase still bound, per cent of control (AKT1 (human)) [%] | other results
N#CCNC(=O)c1ccc(-c2ccnc(Nc3ccc(N4CCOCC4)cc3)n2)cc1 | 2.2 | 63 | 11 | 100 | 42 | 100 | 100 | 65 | 100 | 100 | 100 | 58 | 54 | 100% | 0.25 | 23 | 94 | 2.4 | 100 | 100 | kinase still bound, per cent of control (EPHA3 (human)): 69%; kinase still bound, per cent of control (RPS6KA6 KD1 (human)): 78%; kinase still bound, per cent of control [2]: 70%; kinase still bound, per cent of control [3]: 61%; kinase still bound, per cent of control (STK25 (human)): 71%; kinase still bound, per cent of control (PKN3 (M.tuberculosis)): 8.7%; kinase still bound, per cent of control (MATK (human)): 85%; kinase still bound, per cent of control (MARK1 (human)): 66%; kinase still bound, per cent of control (SIK1 (human)): 62%; kinase still bound, per cent of control (PTK6 (human)): 100%; kinase still bound, per cent of control (MAP3K10 (human)): 62%; kinase still bound, per cent of control (RPS6KA2 KD2 (human)): 71%; kinase still bound, per cent of control (SRPK2 (human)): 30%; kinase still bound, per cent of control (STK32C (human)): 100%; kinase still bound, per cent of control (MAPKAPK2 (human)): 100%; kinase still bound, per cent of control (RIOK1 (human)): 1%; kinase still bound, per cent of control (STK4 (human)): 100%; kinase still bound, per cent of control (PRKX (human)): 74%
CNC(=O)c1cc(Oc2ccc(NC(=O)Nc3ccc(Cl)c(C(F)(F)F)c3)cc2)ccn1 | 100 | 81 | 88 | 92 | 88 | 94 | 100 | 56 | 55 | 100 | 96 | 14 | 100 | 0.45% | 70 | 43 | 100 | 100 | 67 | 100 | kinase still bound, per cent of control (GSK3B (human)): 100%; kinase still bound, per cent of control (STK25 (human)): 80%; kinase still bound, per cent of control (PKN3 (M.tuberculosis)): 100%; kinase still bound, per cent of control (MATK (human)): 100%; kinase still bound, per cent of control (MARK1 (human)): 100%; kinase still bound, per cent of control (SIK1 (human)): 100%; kinase still bound, per cent of control (PTK6 (human)): 100%; kinase still bound, per cent of control (MAP3K10 (human)): 73%; kinase still bound, per cent of control (RPS6KA2 KD2 (human)): 81%; kinase still bound, per cent of control (SRPK2 (human)): 96%; kinase still bound, per cent of control (STK32C (human)): 100%; kinase still bound, per cent of control (MAPKAPK2 (human)): 100%; kinase still bound, per cent of control (RIOK1 (human)): 100%; kinase still bound, per cent of control (STK4 (human)): 81%; kinase still bound, per cent of control (PRKX (human)): 100%
COCC(=O)NC/C=C/c1ccc2ncnc(Nc3ccc(Oc4ccc(C)nc4)c(C)c3)c2c1 | 73 | 100 | 96 | 100 | 83 | 100 | 100 | 100 | 78 | 92 | 100 | 100 | 84 | 100% | 100 | 100 | 100 | 68 | 100 | 100 | kinase still bound, per cent of control (EPHA3 (human)): 97%; kinase still bound, per cent of control (RPS6KA6 KD1 (human)): 96%; kinase still bound, per cent of control (GSK3B (human)): 68%; kinase still bound, per cent of control (CSF1R (human)): 100%; kinase still bound, per cent of control (STK25 (human)): 94%; kinase still bound, per cent of control (PKN3 (M.tuberculosis)): 23%; kinase still bound, per cent of control (MATK (human)): 100%; kinase still bound, per cent of control (MARK1 (human)): 100%; kinase still bound, per cent of control (SIK1 (human)): 100%; kinase still bound, per cent of control (PTK6 (human)): 100%; kinase still bound, per cent of control (MAP3K10 (human)): 100%; kinase still bound, per cent of control (SRPK2 (human)): 92%; kinase still bound, per cent of control (STK32C (human)): 86%; kinase still bound, per cent of control (MAPKAPK2 (human)): 100%; kinase still bound, per cent of control (RIOK1 (human)): 91%; kinase still bound, per cent of control (STK4 (human)): 87%; kinase still bound, per cent of control (PRKX (human)): 100%
O=C1NC(=O)/C(=C/c2ccc3nccc(-c4ccncc4)c3c2)S1 | 88 | 100 | 0.6 | 56 | 47 | 93 | 7.1 | 76 | 100 | 8.6 | 56 | 100 | 3.2 | 39% and 61% | 38 | 46 | 81 | 26 | 71 | 90 | kinase still bound, per cent of control (EPHA3 (human)): 75%; kinase still bound, per cent of control (RPS6KA6 KD1 (human)): 45%; kinase still bound, per cent of control (GSK3B (human)): 66%; kinase still bound, per cent of control [2]: 84%; kinase still bound, per cent of control [3]: 68%; kinase still bound, per cent of control (STK25 (human)): 75%; kinase still bound, per cent of control (PKN3 (M.tuberculosis)): 36%; kinase still bound, per cent of control (MATK (human)): 50%; kinase still bound, per cent of control (MARK1 (human)): 74%; kinase still bound, per cent of control (SIK1 (human)): 96%; kinase still bound, per cent of control (PTK6 (human)): 87%; kinase still bound, per cent of control (MAP3K10 (human)): 60%; kinase still bound, per cent of control (RPS6KA2 KD2 (human)): 12%; kinase still bound, per cent of control (SRPK2 (human)): 86%; kinase still bound, per cent of control (STK32C (human)): 96%; kinase still bound, per cent of control (MAPKAPK2 (human)): 74%; kinase still bound, per cent of control (RIOK1 (human)): 1%; kinase still bound, per cent of control (STK4 (human)): 81%; kinase still bound, per cent of control (PRKX (human)): 19%
